According to patent US8420308B2, “Methods and kits for diagnosis of schizophrenia” (Technion R&D Foundation Ltd., priority 2000, dated 2013):
Read-outs that look alike come from different tables or passages of the source.

What was measured:
complex I [1] = biological target: T1, complex I (Homo sapiens, UniProt P19404+P28331+P49821); test: Complex I driven respiration in SH-SY5Y cells; format: cell-based; design: endogenous in cells; host or cells: SH-SY5Y; details: for % Inhibition - complex I: 5 × 1O^−5 M; for % Inhibition - complex I / inhibition at 100 µM: means ± SD of 4-6 detections; for inhibition at 100 µM: 10^−4 M
Text: (§1) The effect of antipsychotic drugs on respiration in SH-SY5Y cells was studied.

complex II [2] = biological target: T2, complex II (Homo sapiens, UniProt O14521+P21912+P31040+Q99643); test: Complex II driven respiration in SH-SY5Y cells; format: cell-based; design: endogenous in cells; host or cells: SH-SY5Y; details: for inhibition at 50 µM: 5 × 10^−5 M; for inhibition at 50 µM / inhibition at 100 µM: means ± SD of 4-6 detections; for inhibition at 100 µM: 10^−4 M
Text: as §1

complex I [3] = biological target: T1, complex I; details: permeabilized cells, 37° C., 10 minutes of incubation; means±SD of 3 experiments
Protocol: (§2) Respiration rate was determined polarographically using a thermostatically controlled (37° C.) Clark oxygen electrode after 10 minutes of incubation. Respiration rates for each enzyme of the respiratory chain were assessed after the permeabilization of cellular membrane, with 0.001% digitonin followed by the addition of the following substrates and inhibitors: […] plus malate for complex I induced respiration; succinate, in the presence of rotenone and ATP for complex II induced respiration, and glycerol-3-phosphate, in the presence of rotenone. […] Results are means±SD of 3 experiments.

complex II [4] = biological target: T2, complex II; details: succinate in the presence of rotenone and ATP
Protocol: as §2

complex III = complex III (Homo sapiens, UniProt P00156+P08574+P47985); details: glycerol-3-phosphate in the presence of rotenone, ATP and malonate
Protocol: as §2

[5] = test system: EBV transformed lymphocytes
Protocol: Lymphocytes were isolated on Ficol and were centrifugated at 270 g for 10 minutes, the cell pellet was infected with 1 ml EBV at 37° C. for 1 h. The sample was then centrifuged at 270 g for 10 minutes to remove the EBV. The infected lymphocytes were-suspended in 5 ml of RPMI 1640 with 20% (v/v) FBS and 1% phytohemagglutinin (PHA) and incubated in a culture flask with culture medium replaced twice a week. Immortalized lymphocytes were then cryopreserved until use in liquid nitrogen.
Respiration was measured polarographically using a thermostatically controlled (37° C.) Clark oxygen electrode after 10 minutes of incubation. The respiration rates were assessed after the permeabilization of cellular membrane with 0.001% digitonin and the addition of glutamate+malate

[6] = biological target: T3, mitochondrial complex I (NADH ferricyanide reductase) (Homo sapiens, UniProt P19404+P28331+P49821); test: Dopamine inhibition of NADH-ferricyanide reductase (complex I) activity in platelet mitochondria; format: biochemical; details: platelet mitochondrial preparation
T3 construct: an enriched mitochondrial fraction was isolated on percoll as described previously; from tissue; host or cells: mitochondria-enriched fraction of blood platelets, disrupted by freeze-thaw or digitonin

[7] = biological target: T4, NADH CoQ reductase (complex I) (Homo sapiens, UniProt P19404+P28331+P49821); test: NADH-CoQ reductase activity in platelet mitochondria; format: biochemical; details: 10 μM rotenone; read-out: Residual activity of NADH CoQ reductase in the presence of rotenone
T4 construct: an enriched mitochondrial fraction was isolated on percoll as described previously; from tissue; host or cells: mitochondria-enriched fraction of blood platelets, disrupted by freeze-thaw or digitonin
Protocol: Blood (40-80 ml) was collected from the cubital vein without tourniquet between 8:00 and 10:00 a.m., mixed 9:1 with 3.8% (w/v) tri-sodium citrate, and platelet-rich plasma (PRP) separated at room temperature by centrifugation at 200×g for 20 min. Platelets were isolated and washed with Tyrode's buffer pH 7.4 containing 1 mM EDTA as described previously (Krige et al., 1992). The platelet pellet was gently resuspended in ice cold 10 mM Tris buffer pH 7.4 containing 250 mM sucrose and 1 mM EDTA and disrupted by a Dounce A homogenizer (20-30 strokes). The breakdown of the platelets was verified by light microscopy. The homogenate was centrifuged at 1000×g at 4° C. for 20 min to remove unbroken cells. The supernatant, containing the cytoplasmic extract was centrifuged at 12,000×g at 4° C. For 15 min and an enriched mitochondrial fraction was isolated on percoll as described previously (Ben-Shachar et al., 1995; Gavin et al., 1990; McComark and Denton, 1989). […] The final preparation was immediately stored at −70° C. until use.
Mitochondrial respiratory chain enzymes activity was assayed blindly and in triplicate after two cycles of freezing and thawing in a final volume of 1 ml at 25° C. by standard techniques. […]
Results from both assays for each sample are expressed as the difference between reductases activities in the absence and the presence of the relevant inhibitors.

T1 sequence (P49821 21-464): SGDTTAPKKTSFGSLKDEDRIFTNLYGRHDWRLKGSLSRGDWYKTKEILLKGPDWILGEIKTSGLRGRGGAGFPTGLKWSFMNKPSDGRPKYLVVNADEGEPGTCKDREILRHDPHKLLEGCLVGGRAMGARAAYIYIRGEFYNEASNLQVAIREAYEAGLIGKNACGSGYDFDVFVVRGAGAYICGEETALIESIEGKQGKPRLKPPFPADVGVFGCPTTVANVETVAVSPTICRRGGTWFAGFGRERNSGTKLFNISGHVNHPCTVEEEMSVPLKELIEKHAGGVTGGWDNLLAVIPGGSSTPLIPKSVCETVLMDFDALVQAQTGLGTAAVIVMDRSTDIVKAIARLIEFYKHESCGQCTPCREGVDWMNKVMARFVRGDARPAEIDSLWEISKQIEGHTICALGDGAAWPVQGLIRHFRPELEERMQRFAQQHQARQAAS
T1 sequence (P19404 33-249): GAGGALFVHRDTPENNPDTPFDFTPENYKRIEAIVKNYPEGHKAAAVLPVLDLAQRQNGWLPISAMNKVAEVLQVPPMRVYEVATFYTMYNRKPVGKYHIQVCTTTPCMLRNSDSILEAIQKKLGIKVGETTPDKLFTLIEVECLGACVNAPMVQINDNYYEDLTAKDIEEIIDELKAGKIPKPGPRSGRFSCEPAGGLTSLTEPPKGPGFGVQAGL
T1 sequence (P28331 24-727): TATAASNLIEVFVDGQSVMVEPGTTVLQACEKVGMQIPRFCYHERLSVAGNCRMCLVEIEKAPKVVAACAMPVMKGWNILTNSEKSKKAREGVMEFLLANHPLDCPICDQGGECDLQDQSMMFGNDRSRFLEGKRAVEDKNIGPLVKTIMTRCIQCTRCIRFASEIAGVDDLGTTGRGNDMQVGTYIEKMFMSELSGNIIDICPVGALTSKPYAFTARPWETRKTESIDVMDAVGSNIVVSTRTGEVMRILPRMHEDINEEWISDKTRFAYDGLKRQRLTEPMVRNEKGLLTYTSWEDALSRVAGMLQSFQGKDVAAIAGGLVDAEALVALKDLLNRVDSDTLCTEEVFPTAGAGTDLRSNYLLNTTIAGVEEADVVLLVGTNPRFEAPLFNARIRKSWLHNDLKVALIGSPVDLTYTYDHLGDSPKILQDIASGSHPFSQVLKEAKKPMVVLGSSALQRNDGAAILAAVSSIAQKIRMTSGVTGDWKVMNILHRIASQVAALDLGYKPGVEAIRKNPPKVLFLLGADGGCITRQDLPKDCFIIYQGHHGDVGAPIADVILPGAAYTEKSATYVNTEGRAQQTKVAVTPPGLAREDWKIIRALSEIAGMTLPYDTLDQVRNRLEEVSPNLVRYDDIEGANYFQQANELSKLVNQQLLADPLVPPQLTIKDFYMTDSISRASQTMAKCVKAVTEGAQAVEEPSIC
T2 sequence (P31040 43-664): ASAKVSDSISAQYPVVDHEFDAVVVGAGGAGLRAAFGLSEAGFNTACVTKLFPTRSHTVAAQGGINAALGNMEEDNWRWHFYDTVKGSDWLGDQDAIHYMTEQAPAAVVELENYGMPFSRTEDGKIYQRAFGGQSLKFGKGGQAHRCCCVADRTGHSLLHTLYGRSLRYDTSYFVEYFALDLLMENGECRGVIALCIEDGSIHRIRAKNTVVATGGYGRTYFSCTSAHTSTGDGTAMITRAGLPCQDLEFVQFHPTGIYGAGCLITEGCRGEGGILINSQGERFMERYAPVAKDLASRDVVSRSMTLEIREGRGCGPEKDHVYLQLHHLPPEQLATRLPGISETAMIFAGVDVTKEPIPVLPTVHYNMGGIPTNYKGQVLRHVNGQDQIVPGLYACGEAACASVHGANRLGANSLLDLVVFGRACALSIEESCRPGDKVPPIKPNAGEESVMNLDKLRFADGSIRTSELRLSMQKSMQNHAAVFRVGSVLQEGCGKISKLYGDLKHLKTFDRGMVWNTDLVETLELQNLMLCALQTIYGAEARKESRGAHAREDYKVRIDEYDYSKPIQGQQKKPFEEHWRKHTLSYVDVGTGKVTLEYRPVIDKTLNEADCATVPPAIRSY
T2 sequence (P21912 29-280): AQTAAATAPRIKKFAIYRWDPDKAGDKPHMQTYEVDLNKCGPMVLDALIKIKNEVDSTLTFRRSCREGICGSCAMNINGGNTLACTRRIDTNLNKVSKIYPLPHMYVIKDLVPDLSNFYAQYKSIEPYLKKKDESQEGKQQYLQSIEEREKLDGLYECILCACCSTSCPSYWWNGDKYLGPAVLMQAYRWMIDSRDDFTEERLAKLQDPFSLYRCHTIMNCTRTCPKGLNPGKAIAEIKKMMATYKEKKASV
T2 sequence (Q99643 30-169): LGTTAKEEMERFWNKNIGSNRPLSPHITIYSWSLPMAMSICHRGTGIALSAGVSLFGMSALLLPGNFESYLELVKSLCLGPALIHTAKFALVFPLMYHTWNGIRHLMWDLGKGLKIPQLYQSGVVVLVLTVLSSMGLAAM
T2 sequence (O14521 57-159): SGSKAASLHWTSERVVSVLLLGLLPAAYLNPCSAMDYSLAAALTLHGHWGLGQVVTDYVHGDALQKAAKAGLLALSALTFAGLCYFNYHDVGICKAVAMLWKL
T3 sequence (P49821 21-464): as the sequence (P49821 21-464) above
T3 sequence (P19404 33-249): as the sequence (P19404 33-249) above
T3 sequence (P28331 24-727): as the sequence (P28331 24-727) above
T4 sequence (P28331 24-727): as above
T4 sequence (P49821 21-464): as the sequence (P49821 21-464) above
T4 sequence (P19404 33-249): as the sequence (P19404 33-249) above

inhibition at 50 µM (complex II [2]) [%]	inhibition at 100 µM (complex II [2]) [%]	SMILES	% Inhibition - complex I (complex I [1]) [%]	inhibition at 100 µM (complex I [1]) [%]	also measured
6.6 ± 3.5	14.9 ± 2.1	CN(C)CCCN1c2ccccc2Sc2ccc(Cl)cc21 [Chlorpromazine]	20.9 ± 18.1	43.8 ± 17.3	Effect on complex I driven mitochondrial respiration (in words) (complex I [1]): specifically inhibit complex I driven mitochondrial respiration; Effect on respiration through complex II (in words) (complex II [2]): no effect
10.9 ± 1.6	2.6 ± 2.4	CN1CCN(C2=Nc3cc(Cl)ccc3Nc3ccccc32)CC1 [Clozapine]	31.2 ± 5.6	39.9 ± 20.8	–
15 ± 9.2	25.3 ± 0.2	CNCCC(Oc1ccc(C(F)(F)F)cc1)c1ccccc1 (centres unmarked) [Fluoxetine]	15.7 ± 25.5	29.2 ± 22.7	–
0.7 ± 0.7	2.9 ± 1.8	O=C(CCCN1CCC(O)(c2ccc(Cl)cc2)CC1)c1ccc(F)cc1 [Haloperidol]	27.2 ± 4.7	47.6 ± 10	Effect on complex I driven mitochondrial respiration (in words) (complex I [1]): specifically inhibit complex I driven mitochondrial respiration; Effect on respiration through complex II (in words) (complex II [2]): no effect

The next lines start with the compound.

SMILES	inhibition at 50 µM (complex II [2]) [%]	inhibition at 100 µM (complex II [2]) [%]	% Inhibition - complex I (complex I [1]) [%]	inhibition at 100 µM (complex I [1]) [%]	also measured
CN(C)CCCN1c2ccccc2CCc2ccc(Cl)cc21 [Anafranil]	11 ± 1.2	22.1 ± 18	13.0 ± 11.0	32.1 ± 8.8	–
NCCc1ccc(O)c(O)c1 [Dopamine]	–	–	–	–	Inhibition of respiration through complex I (complex I [3]): 33.3±0.07%; Inhibition of respiration through complex II (complex II [4]): not through complex II; Inhibition of respiration through complex III (complex III): not through complex II and III; Inhibition by DA in schizophrenic patients relative to control subjects ([5]; EBV transformed lymphocytes): higher by two fold; Inhibition of respiration by DA ([5]; lymphoblasts of control subjects (n=7)): 11.4±7.2%; Inhibition of respiration by DA ([5]; lymphoblasts of schizophrenic patients (n=7)): 26.8±8.6%
C=C(C)[C@H]1Cc2c(ccc3c2O[C@@H]2COc4cc(OC)c(OC)cc4[C@@H]2C3=O)O1 [rotenone]	–	–	–	–	Effect on NADH ferricyanide reductase activity [6]: no effect; remaining activity at 10 µM [7]: 5 to 15%
